Reference: patent US8361993B2, “Hydroxy-bisphosphonic acid derivatives as vector targeting bone tissue” (Universite de Nantes, priority 2008, dated 2013)
Structures can show the parent of a compound that is named as a salt. Where two headings read alike, the source gives them in different places.

How the values were obtained:
[1] = system: mice (Swiss strain); assay: in vivo bone tropism test in young mice, 4 weeks of treatment; conditions: 0.35 μmol/kg sub-cutaneously twice a week; for specific bone volume BV/TV, left femur / specific bone volume BV/TV, average of left and right femur / specific bone volume BV/TV, right femur: 4 weeks; for specific bone volume BV/TV, left femur: control 56.58%; for specific bone volume BV/TV, average of left and right femur: control 62.89%; for specific bone volume BV/TV, right femur: control 69.20%
[2] = system: POS-1 mouse osteosarcoma; conditions: in vivo
[3] = system: murine fibroblast L929; assay: cells; format: cell-based; conditions: Mus musculus, L929, 72 h
[4] = system: POS-1 mouse osteosarcoma; assay: cells; format: cell-based; conditions: 72 h
[5] = system: mice; assay: administration of the fluorescent molecule in mice; conditions: mouse, in vivo
[6] = system: different cell lines; assay: in vitro cytotoxicity of the fluorescent molecule; format: cell-based
[7] = system: OSRGA osteosarcoma cell line; assay: viability/cytotoxicity test on osteosarcoma line OSRGA; format: cell-based; conditions: rat osteosarcoma cell line
Protocol: (§1) The biological activities (viability/cytotoxicity test) of the molecules (III) and (IV) were tested in vitro on cultures of human, murine and rat osteosarcoma lines in comparison with normal cells (healthy osteoblasts from mouse calvaria).

[8] = system: MG63 osteosarcoma cell line; assay: viability/cytotoxicity test on osteosarcoma line MG63; format: cell-based; conditions: MG-63; human osteosarcoma cell line
Protocol: as §1

[9] = system: POS1 osteosarcoma cell line; assay: viability/cytotoxicity test on osteosarcoma line POS1; format: cell-based; conditions: mouse osteosarcoma cell line
Protocol: as §1

[10] = system: Mouse osteosarcoma POS1 cells; assay: in vivo osteolytic primitive bone tumor model, POS1 tumor fragments transplanted into para-osteal site; conditions: treated versus untreated (control) mice; FIG. 3
Protocol: Mouse osteosarcoma POS1 cells were injected in the pad of a 5-week old male mouse of the C3H/HeN strain. Fragments of the tumor which develops on this site are then transplanted into a para-osteal site in order to induce development of an osteolytic primitive bone tumor. The molecule (IV) was then injected as a cure of […] injections (IP) of 11.5 or 115 μmol/kg at 24 hr intervals from the 7th day (D7) after tumoral induction.

SMILES: O=P(O)(O)C(O)(Cn1ccnc1)P(=O)(O)O [Disodium salt of zoledronic acid, zoledronic acid, reference compound]
- specific bone volume BV/TV, left femur [1]: 72.72%
- specific bone volume BV/TV, average of left and right femur [1]: 74.02%
- specific bone volume BV/TV, right femur [1]: 75.33%
- weight follow-up and general condition of the mice ([1]; after 4 weeks): no incidence on the weight follow-up, nor on the general condition

SMILES: NP(=O)(OCc1cccc(OCCCBr)c1)N(CCCl)CCCl (centres unmarked) [Molecule 2]
- survival rate [2]: significant increase
- IC50 ([3]; read-out: IC50 L929 (DMSO)): > 500 µM
- IC50 ([3]; read-out: IC50 L929 (ethanol)): 250 µM
- IC50 ([4]; read-out: IC50 POS-1 (DMSO)): 200 µM
- IC50 ([4]; read-out: IC50 POS-1 (ethanol)): 300 µM

SMILES: CN(CCCOc1cccc(COP(N)(=O)N(CCCl)CCCl)c1)CCC(=O)OC(C)(C)C (centres unmarked) [Molecule 3]
- IC50 ([3]; read-out: IC50 L929 (DMSO)): 500 µM
- IC50 ([3]; read-out: IC50 L929 (ethanol)): > 500 µM
- IC50 ([4]; read-out: IC50 POS-1 (DMSO)): 280 µM
- IC50 ([4]; read-out: IC50 POS-1 (ethanol)): 500 µM

SMILES: CN(CCCOc1ccccc1)CCC(O)(P(=O)(O)O)P(=O)(O)O [Molecule 4]
- specific bone volume BV/TV, left femur [1]: 73.69%
- specific bone volume BV/TV, average of left and right femur [1]: 73.88%
- specific bone volume BV/TV, right femur [1]: 74.08%
- mineral density on radiographs ([1]; after 4 weeks, versus control mice, FIG. 2): increase in the mineral density

SMILES: CN(CCCOc1cccc(CN(C)S(=O)(=O)c2cccc3c(N(C)C)cccc23)c1)CCC(O)(P(=O)(O)O)P(=O)(O)O [Molecule (II), 3-((3-(3-((5-dimethylamino)-N-methylnaphthalene-1-sulfonamido)methyl)phenoxy)propyl(methyl)amino)-1-hydropropane-1,1-diyldiphosphonic acid]
- cytotoxic activity after administration in mice [5]: did not either reveal any cytotoxic activity
- cytotoxic activity in vitro [6]: did not have any cytotoxic activity

SMILES: CN(CCCOc1cccc(COP(N)(=O)N(CCCl)CCCl)c1)CCC(O)(P(=O)(O)O)P(=O)(O)O (centres unmarked) [Molecule (III), 3-((3-(3-((amino(bis(2-chloroethyl)amino)phosphoryloxy)methyl)phenoxy)propyl)(methyl)amino)-1-hydroxypropane-1,1-diyl-diphosphonic acid]
- IC50 [7]: > 200 µM
- IC50 [8]: > 200 µM
- IC50 [9]: > 200 µM

SMILES: CN(CCCOc1cccc(COCCOP(N)(=O)N(CCCl)CCCl)c1)CCC(O)(P(=O)(O)O)P(=O)(O)O (centres unmarked) [Molecule (IV), {3-[(3-{3-[6-amino-9-chloro-7-(2-chloroethyl)-6-oxido-2,5-dioxa-7-aza-6-phosphanon-1-yl]phenoxy}propyl)(methyl)amino]-1-hydroxypropane-1,1-diyl}biphosphonic acid]
- IC50 [7]: > 500 µM
- IC50 [8]: > 500 µM
- bone mineral density in the epiphyseal area (radiographs) [10]: increase in the bone mineral density
- IC50 [9]: > 500 µM
